# Test results as given in patent US7538193B2, “NO-modified hemoglobins and uses therefor” (Duke University, priority 1995, dated 2009).
# Columns and labels:
# [1] = system: rabbit thoracic aortic rings, endothelium removed; experiment: Oxygen-dependent vessel ring bioassay (Examples 22, 23); assay type: cell-based
# [2] = Decomposition and stability of SNO-Hb forms; assay type: physicochemical
# Procedure: Hbs in PBS (0.5 mM EDTA, pH 7.4) were incubated in air (oxy) or in a tonometer previously evacuated of O2 (deoxy). SNO-Hb(FeII)O2 decomposition was determined by the method of Saville (Saville, B., Analyst 83:670-672 (1958)). Spontaneous decomposition of SNO-Hb(FeII) was followed spectrophotometrically by formation of Hb(FeII)NO. Transnitrosation reactions with glutathione were performed by addition of 100-fold excess glutathione over protein (50 μM), immediate processing of the reaction mixture under anaerobic conditions followed by rapid TCA precipitation, and analysis of RSNO in the supernatant. Rates of NO group transfer were too rapid to measure accurately by the standard methods used in this study.
# rabbit aortic ring = experiment: Vessel ring bioassay of SNO-Hb preparations (Examples 4, 13); assay type: cell-based; conditions: for vasoactivity in vascular ring bioassay: no added thiol (FIG. 4A)
# Procedure: Details of the vessel ring bioassay have been published (Stamler, J. S., et al., Proc. Natl. Acad. Sci. USA 89:444-448 (1992)). SNO-Hb(FeII)O2 preparations were synthesized with 10-fold excess S-nitrosocysteine (CYSNO) over Hb(FeII)O2 protein (2% borate, 0.5 mM EDTA, ˜15 min incubation), after which desalting was performed across Sephadex G-25 columns. CYSNO was synthesized in 0.5 N HCl, 0.5 mM EDTA and then neutralized (1:1) in 1 M phosphate buffer containing 0.5 mM EDTA. […] The latter was synthesized by treatment of Hb(FeII)O2 with excess ferricyanide, followed by desalting across G-25 columns. SNO-Hb concentrations were verified spectroscopically and the S-nitrosothiol content was determined by the method of Saville (Stamler, J. S., et al., Proc. Natl. Acad. Sci USA 89:444-448 (1992)). The S—NO/tetramer stoichiometry for both SNO-Hb preparations was ˜2. Oxidation of the heme was undetectable by uv-spectrophotometric methods.
# The aortic ring bioassay was performed as described in Example 4. The product of the reaction in which a ratio of 100:1 CYSNO/Hb tetramer was used, contains 2 SNOs as well as NO attached to the heme.
# rat red blood cells = experiment: S-nitrosation of intraerythrocytic Hb on incubation of red blood cells with RSNOs; assay type: cell-based; conditions: oxygenated rat red blood cells
# Procedure: Incubation of rat erythrocytes with S-nitrosocysteine (equimolar to heme (5 mM); phosphate buffer pH 7.4, 25° C.) leads to rapid formation of intracellular SNO-Hb(FeII)O2. […] By 60 min, 3 of the 4 available SH groups of Hb were S-nitrosated (note that rat Hb contains 4 reactive SH groups). […] Spectrum A is that of SNO-Hb isolated from erythrocytes following G-25 chromatography. Treatment of A with dithionite results in reduction of the S—NO moiety, liberating free NO which is autocaptured by deoxy Hb, forming Hb(FeII)NO (note that dithionite simultaneously deoxygenates Hb) (spectrum C). […] The spectrum of Hb(FeII)NO containing 4 NO's per tetramer is shown for comparison (inset, spectrum B).
# At shown intervals, red blood cells were pelleted rapidly by centrifugation, washed three times, lysed in deionized water at 4° C., and the cytosolic fraction subjected to rapid desalting across G-25 columns. Intracellular SNO-Hb was measured by the method of Saville (Gaston, B., et al., (1992); Stamler, J. S., et al., Proc. Natl. Acad. Sci. USA, 89:444-448 (1992)), and confirmed spectroscopically (inset of FIG. 3A) as described above.
# Sprague-Dawley rat = experiment: Mean arterial blood pressure in anesthetized rats after femoral vein bolus (Examples 5, 6); assay type: in vivo; conditions: 2-200 nmol/kg bolus
# Description: Rats were anesthetized by intraperitoneal injection of pentobarbital and the femoral arteries and veins accessed by local cut down. The artery was then cannulated and the blood pressure monitored continuously using a Viggo Spectramed pressure transducer attached to a Gould recorder. An IBM PC (DATA Q Codas) was used for data acquisition.
# [3] = system: substantia nigra, caudate putamen nucleus and parietal cortex of Sprague-Dawley rats; experiment: O2-dependent local cerebral blood flow in rats (Example 25); assay type: in vivo, rat; conditions: 1 μmol/kg infused over 3 minutes
# Procedure: Adult male Sprague-Dawley rats (290-350 g) were anesthetized with sodium pentobarbital (50 mg/kg IP), intubated and ventilated with a small animal respirator (Edco Scientific Inc., Chapel Hill, N.C.) at a rate and tidal volume to maintain normal values of PaCO2 (35-45 mm Hg; PaCO2=systemic arterial blood carbon dioxide tension). The femoral vein and artery were cannulated for infusion of drugs and for continuous monitoring of systemic blood pressure, respectively. Aliquots of arterial blood (200 μl) were drawn periodically to measure blood gas tensions and pH (Instrumentation Laboratory Co., model 1304 blood gas/pH analyzer). The blood was replaced intravenously with three volumes of normal saline. The inspired O2 concentration was varied using premixed gases balanced with nitrogen. The tissue PO2 was measured continuously with polarographic platinum microelectrodes (50 μm O.D. coated with hydrophobic gas permeable Nafion) implanted stereotaxically in both the right and left hippocampus (AP-3.4 mm, ML+2.2 mm), caudate putamen nucleus and substantia nigra (see coordinates below) (Young, W., Stroke, 11:552-564 (1980); Heiss, W. D. and Traupett, H., Stroke, 12:161-167 (1981); Dewhirst, M. W. et al., Cancer Res., 54:3333-3336 (1994); Kerger, H. et al., Am. J. Physiol., 268:H802-H810 (1995)). The PO2 electrodes were polarized to −0.65V against a distant Ag/AgCl reference located on the tail and the current flow was measured using a low-impedance nA-meter. Regional arterial PO2 was adjusted by changing the inspired O2 concentration and atmospheric pressure.
# Polarographic hydrogen (H2)-sensitive microelectrodes were implanted stereotaxically in the substantia nigra (AP −5.3 mm, ML −2.4 mm to the bregma, depth 3.2 mm), caudate putamen nucleus (CPN) (AP +0.8 mm, ML −2.5 mm, depth 5.2 mm) and parietal cortex, for measurement of regional blood flow (Young, W., Stroke, 11:552-564 (1980); Heiss, W. D. and Traupett, H., Stroke, 12:161-167 (1981)). The microelectrodes were made from platinum wire and insulated with epoxy, with the exception of the tip (1 mm) which was coated with Nafion. For placement, the electrodes were mounted on a micromanipulator and the rat's head was immobilized in a Kopf stereotaxic frame. H2-sensitive electrodes were polarized to +400 mV against a distant reference electrode on the tail, and the polarographic current was measured using a low-impedance nA meter during and after the inhalation of hydrogen gas (2.5%) for 1 min. Both the hydrogen clearance curves and voltage for oxygen measurements were made using PC WINDAQ (software, DI-200 AC, Dataq Instruments, Inc., Akron, Ohio). Cerebral blood flow was calculated using the initial slope method (Young, W., Stroke, 11:552-564 (1980); Heiss, W. D. and Traupett, H., Stroke, 12:161-167 (1981)). Regional blood flow responses were monitored for 30 min. prior to and 30 min. following drug administration; hemoglobins were given at time 0.
# The cerebrovascular effects of SNO-Hb were measured in adult male Sprague-Dawley rats using O2 and H2 (blood flow)-sensitive microelectrodes that were placed stereotaxically in several regions of the brain as for Example 24.
# [4] = system: rat brain (caudatoputamen nucleus); experiment: Brain blood flow in rats by H2 clearance (Example 12); assay type: in vivo; conditions: rats breathing 21% O2; 100 or 1000 nmol/kg
# Procedure: SNO-Hb(FeII)O2, having a SNO/Hb ratio of 2, was prepared (from HbA0) by reaction with S-nitrosothiol. Rats breathing 21% O2 were injected (time 0) with Hbs prepared from HbA0 as indicated in FIG. 10 (open circles, SNO-Hb (100 nmol/kg); filled circles, SNO-Hb (1000 nmol/kg); filled squares, unmodified Hb (1000 nmol/kg)). Three rats were used per experiment. Blood flow was measured in brain using the H2 clearance method; microelectrodes were placed in the brain stereotactically. […] NO group release is promoted by local tissue hypoxia.
compound,measurement,setting,value
SNO-deoxyHb: S-nitroso-deoxyhemoglobin synthesized in an anaerobic environment,effect on vessel tension,"[1]; <1% O2 (~6 torr), T-structure",modest effect on baseline tone
same,stability of the isolated preparation,[2]; as synthesized in Example 27,highly unstable
same,rates of RSNO decomposition (and transfer),"[2]; deoxy conformation versus oxy state, PBS pH 7.4",much faster
100:1 CYSNO/Hb product: Hb treated with 100:1 S-nitrosocysteine; contains 2 SNOs as well as NO attached to the heme (polynitrosated),potency in aortic ring bioassay,rabbit aortic ring; Hb treated with S-nitrosocysteine 100:1 (FIG. 11),much greater than that of SNO-Hb(FeIII)
"deoxyHb: deoxyhemoglobin, not S-nitrosated",effect on vessel tension,"[1]; <1% O2 (~6 torr), T-structure",powerful contractile agent
"[N]=O [NO, nitric oxide, reference compound]",relaxant activity of free NO,rabbit aortic ring; in the presence of Hb(FeII)O2 or Hb(FeIII),devoid of relaxant activity
"Hb(FeIII): methemoglobin, heme iron oxidized to FeIII [reference compound]",vasoactivity in vascular ring bioassay,rabbit aortic ring,contractile properties
N[C@@H](CSN=O)C(=O)NCC(=O)O [S-nitrosocysteinylglycine],formation of intraerythrocytic SNO-Hb on treatment of red blood cells,rat red blood cells,formed
N[C@@H](CSN=O)C(=O)O [S-nitrosocysteine],formation of intraerythrocytic SNO-Hb on treatment of red blood cells,rat red blood cells,very rapid formation of intracellular SNO-Hb(FeII)O2
N[C@@H](CCSN=O)C(=O)O [S-nitrosohomocysteine],formation of intraerythrocytic SNO-Hb on treatment of red blood cells,rat red blood cells,formed
"Hb(FeII)O2: oxyhemoglobin, cell-free, not S-nitrosated [reference compound]",effect of added glutathione on the dose-response,rabbit aortic ring; glutathione 100 ∥M in bioassay chambers (FIG. 4B),did not significantly influence the response
same,vasoactivity in vascular ring bioassay,rabbit aortic ring,Contractile effects
same,time for elevations in blood pressure to reverse,Sprague-Dawley rat,10 to 15 min
"SNO-Hb: S-nitrosohemoglobin, hemoglobin S-nitrosylated at thiol groups (cysβ93)",local cerebral blood flow,[3]; 21% O2,improved blood flow in all three regions of the brain tested
same,local cerebral blood flow,[3]; 100% O2 + 3 ATA,tended to decrease cerebral flow to similar extents
same,local cerebral blood flow,[3]; 100% O2,significantly attenuated
same,blood flow to the brain,[4],improves blood flow to the brain
same,effect on vessel tone,"[1]; 1 μM, rings contracted with phenylephrine under hypoxic conditions (6-7 torr)",relaxations
same,effect of 10 μM glutathione on the response,[1]; 10 μM glutathione in bioassay chambers,potentiates the vasorelaxant response
same,effect on vessel tension,[1]; 95% O2 or 21% O2 (R-structure),contract blood vessels
same,effect on vessel tension,"[1]; <1% O2 (~6 torr), T-structure",does not
"N[C@@H](CCC(=O)N[C@@H](CSN=O)C(=O)NCC(=O)O)C(=O)O [GSNO, S-nitrosoglutathione]",local cerebral blood flow,[3]; 100% O2 + 3 ATA,increased brain perfusion
same,local cerebral blood flow,[3]; 100% O2,increased brain perfusion
same,"vasorelaxant effects, dependence on PO2","[1]; 95%, 21%, <1% O2 (FIG. 20D)",largely independent of PO2
same,formation of intraerythrocytic SNO-Hb on treatment of red blood cells,rat red blood cells,not
